Legend:
Format in all cases: biochemical
BTK = BTK (Homo sapiens, UniProt Q06187); experiment: BTK IC50 kinase inhibition assay
JAK3 = target: T1, JAK3 (Homo sapiens, UniProt P52333); experiment: JAK3 IC50 kinase inhibition assay
T1 sequence (P52333 1-1124): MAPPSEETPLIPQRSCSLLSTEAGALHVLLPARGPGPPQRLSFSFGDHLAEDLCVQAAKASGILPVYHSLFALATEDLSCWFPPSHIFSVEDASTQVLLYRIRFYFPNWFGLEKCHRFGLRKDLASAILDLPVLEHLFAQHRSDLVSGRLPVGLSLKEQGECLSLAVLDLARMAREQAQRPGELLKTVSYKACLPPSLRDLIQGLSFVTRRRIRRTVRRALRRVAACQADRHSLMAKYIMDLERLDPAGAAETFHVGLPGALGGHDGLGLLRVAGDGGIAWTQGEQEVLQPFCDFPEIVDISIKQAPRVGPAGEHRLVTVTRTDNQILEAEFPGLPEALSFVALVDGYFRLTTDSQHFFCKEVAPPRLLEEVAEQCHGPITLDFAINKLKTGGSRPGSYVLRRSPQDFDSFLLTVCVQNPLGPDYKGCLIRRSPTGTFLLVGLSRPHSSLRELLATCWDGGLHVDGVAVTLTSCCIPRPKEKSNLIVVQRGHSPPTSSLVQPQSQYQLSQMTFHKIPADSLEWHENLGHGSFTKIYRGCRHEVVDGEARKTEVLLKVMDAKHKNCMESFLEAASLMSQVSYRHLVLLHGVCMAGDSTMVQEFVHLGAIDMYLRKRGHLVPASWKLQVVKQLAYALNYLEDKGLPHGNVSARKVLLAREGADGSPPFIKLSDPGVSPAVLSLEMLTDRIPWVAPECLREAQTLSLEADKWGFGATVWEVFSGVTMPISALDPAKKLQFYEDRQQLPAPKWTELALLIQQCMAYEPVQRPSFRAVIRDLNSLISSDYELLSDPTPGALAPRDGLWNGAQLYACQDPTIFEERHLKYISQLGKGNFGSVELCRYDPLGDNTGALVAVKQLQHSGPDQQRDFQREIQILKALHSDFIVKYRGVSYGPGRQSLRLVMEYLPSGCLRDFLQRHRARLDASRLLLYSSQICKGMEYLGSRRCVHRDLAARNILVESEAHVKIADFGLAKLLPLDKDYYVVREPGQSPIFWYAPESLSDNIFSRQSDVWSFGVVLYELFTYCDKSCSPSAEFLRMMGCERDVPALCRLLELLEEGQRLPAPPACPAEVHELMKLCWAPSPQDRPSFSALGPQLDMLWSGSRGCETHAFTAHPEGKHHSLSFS

RLK = target: T2, RLK (Homo sapiens, UniProt P42681); experiment: RLK IC50 kinase inhibition assay
T2 sequence (P42681 1-527): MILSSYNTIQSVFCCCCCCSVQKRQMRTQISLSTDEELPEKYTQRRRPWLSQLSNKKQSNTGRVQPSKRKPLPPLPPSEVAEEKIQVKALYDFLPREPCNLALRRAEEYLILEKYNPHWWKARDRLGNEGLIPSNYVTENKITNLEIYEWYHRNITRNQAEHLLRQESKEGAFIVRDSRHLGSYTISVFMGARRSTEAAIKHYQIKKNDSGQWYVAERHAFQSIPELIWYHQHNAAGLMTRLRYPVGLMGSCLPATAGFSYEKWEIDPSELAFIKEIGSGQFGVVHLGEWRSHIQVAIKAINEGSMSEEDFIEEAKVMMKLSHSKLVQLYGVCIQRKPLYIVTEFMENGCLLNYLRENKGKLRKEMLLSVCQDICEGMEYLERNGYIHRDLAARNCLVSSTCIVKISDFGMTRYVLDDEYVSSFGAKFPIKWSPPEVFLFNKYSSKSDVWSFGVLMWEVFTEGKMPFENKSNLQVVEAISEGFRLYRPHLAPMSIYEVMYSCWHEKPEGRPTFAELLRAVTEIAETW

ITK = target: T3, ITK (Homo sapiens, UniProt Q08881); experiment: ITK IC50 kinase inhibition assay
T3 sequence (Q08881 1-620): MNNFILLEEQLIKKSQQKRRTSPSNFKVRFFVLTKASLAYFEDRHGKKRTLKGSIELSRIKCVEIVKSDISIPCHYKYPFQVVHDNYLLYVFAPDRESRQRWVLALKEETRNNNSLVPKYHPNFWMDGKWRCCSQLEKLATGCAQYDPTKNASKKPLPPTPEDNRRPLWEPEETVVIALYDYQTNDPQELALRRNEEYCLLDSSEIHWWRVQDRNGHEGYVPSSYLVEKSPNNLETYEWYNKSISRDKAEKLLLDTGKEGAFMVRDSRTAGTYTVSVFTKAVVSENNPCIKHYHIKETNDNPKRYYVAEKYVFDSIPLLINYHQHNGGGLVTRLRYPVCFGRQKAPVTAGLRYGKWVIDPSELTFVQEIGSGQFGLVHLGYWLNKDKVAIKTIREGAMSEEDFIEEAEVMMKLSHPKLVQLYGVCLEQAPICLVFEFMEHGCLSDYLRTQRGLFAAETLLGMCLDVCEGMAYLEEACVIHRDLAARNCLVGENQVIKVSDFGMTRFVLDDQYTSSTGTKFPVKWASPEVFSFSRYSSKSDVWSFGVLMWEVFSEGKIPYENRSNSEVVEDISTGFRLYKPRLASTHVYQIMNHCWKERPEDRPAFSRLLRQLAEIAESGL

TXK = target: T4, TXK (Homo sapiens, UniProt P42681); experiment: TXK IC50 kinase inhibition assay
T4 sequence (P42681 1-527): T2 sequence (P42681 1-527)

Chain of BTK (Q06187 whole entry): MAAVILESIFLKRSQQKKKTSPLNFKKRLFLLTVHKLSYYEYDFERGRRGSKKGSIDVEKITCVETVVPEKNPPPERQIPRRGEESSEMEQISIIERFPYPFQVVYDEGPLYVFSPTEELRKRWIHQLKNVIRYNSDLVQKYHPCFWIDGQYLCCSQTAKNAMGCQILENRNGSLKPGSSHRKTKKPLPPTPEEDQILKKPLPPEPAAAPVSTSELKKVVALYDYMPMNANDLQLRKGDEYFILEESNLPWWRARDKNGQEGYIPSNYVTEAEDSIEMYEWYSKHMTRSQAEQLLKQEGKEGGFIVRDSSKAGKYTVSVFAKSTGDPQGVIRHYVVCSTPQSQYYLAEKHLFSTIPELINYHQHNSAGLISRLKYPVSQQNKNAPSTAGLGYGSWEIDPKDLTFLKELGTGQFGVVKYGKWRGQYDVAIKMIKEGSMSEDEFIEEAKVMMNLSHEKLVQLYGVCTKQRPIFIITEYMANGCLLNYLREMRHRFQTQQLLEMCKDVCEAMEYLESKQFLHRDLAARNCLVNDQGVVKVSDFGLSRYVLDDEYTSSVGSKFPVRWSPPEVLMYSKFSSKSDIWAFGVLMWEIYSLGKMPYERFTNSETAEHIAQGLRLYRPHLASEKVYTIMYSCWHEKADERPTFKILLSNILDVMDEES

| Structure (SMILES) | IC50 (BTK) | IC50 (JAK3) | IC50 (RLK) | IC50 (ITK) | IC50 (TXK) |
| --- | --- | --- | --- | --- | --- |
| C=CC(=O)N1CCC[C@@H](n2nc(-c3ccc(Oc4ccccc4)cc3)c3cnc(N)nc32)C1 [Compound A11] | < 100 nM | > 500 nM | 100 to 500 nM | > 500 nM |  |
| CCC#CC(=O)N1CC2(CC(n3nc(-c4ccc(Oc5ccccc5)cc4)c4cncnc43)C2)C1 [Compound A71, 1-(6-(3-(4-phenoxyphenyl)-1H-pyrazolo[3,4-d]pyrimidin-1-yl)-2-azaspiro[3.3]heptan-2-yl)pent-2-yn-1-one] | 100 to 500 nM | > 500 nM |  | > 500 nM | 100 to 500 nM |
| C=CC(=O)N1CC[C@@H]1Cn1nc(-c2ccc(Oc3ccccc3)cc2)c2cncnc21 [Compound A53, (R)-1-(2-((3-(4-phenoxyphenyl)-1H-pyrazolo[3,4-d]pyrimidin-1-yl)methyl)azetidin-1-yl)prop-2-en-1-one] | < 100 nM | > 500 nM |  | > 500 nM | < 100 nM |
| C=CC(=O)N1CC[C@@H](n2nc(-c3ccc(Oc4ccccc4)cc3)c3cncc(C#N)c32)C1 [Compound A73, (R)-1-(1-acryloylpyrrolidin-3-yl)-3-(4-phenoxyphenyl)-1H-pyrazolo[4,3-c]pyridine-7-carbonitrile] | < 100 nM | > 500 nM |  | > 500 nM | < 100 nM |
| C=CC(=O)N1CCC[C@@H](n2nc(-c3ccc(Oc4ccccc4)c(C)c3)c3cncnc32)C1 [Compound A5, (R)-1-(3-(3-(3-methyl-4-phenoxyphenyl)-1H-pyrazolo[3,4-d]pyrimidin-1-yl)piperidin-1-yl)prop-2-en-1-one] | < 100 nM | > 500 nM |  | > 500 nM | 100 to 500 nM |
| C=CC(=O)N1CC(n2nc(-c3ccc(Oc4ccccc4)cc3)c3cncnc32)C1 [Compound A13, 1-(3-(3-(4-phenoxyphenyl)-1H-pyrazolo[3,4-d]pyrimidin-1-yl)azetidin-1-yl)prop-2-en-1-one] | 100 to 500 nM | > 500 nM |  | > 500 nM | 100 to 500 nM |

Reference: patent US10870652B2, “Compounds and methods for modulating bruton's tyrosine kinase” (CORVUS PHARMACEUTICALS, INC., priority 2016, dated 2020)
